Assays:
ZAC [1] = target: T1, ZAC (Homo sapiens, UniProt Q401N2); assay: TEVC recordings, H+-evoked currents at ZAC expressed in Xenopus oocytes; format: cell-based
T1 sequence (Q401N2 26-412): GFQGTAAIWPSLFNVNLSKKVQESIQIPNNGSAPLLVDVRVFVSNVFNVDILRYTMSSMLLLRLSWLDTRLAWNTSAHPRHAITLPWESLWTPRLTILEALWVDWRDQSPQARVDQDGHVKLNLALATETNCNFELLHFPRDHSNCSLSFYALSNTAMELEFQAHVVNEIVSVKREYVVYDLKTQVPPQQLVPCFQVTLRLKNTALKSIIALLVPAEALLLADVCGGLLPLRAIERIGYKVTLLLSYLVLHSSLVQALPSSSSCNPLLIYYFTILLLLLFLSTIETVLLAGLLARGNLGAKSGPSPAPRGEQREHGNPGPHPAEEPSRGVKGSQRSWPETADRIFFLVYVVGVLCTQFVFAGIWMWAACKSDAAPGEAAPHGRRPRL
Protocol: The cDNAs for the various WT and chimeric CLR subunits were linearized and subsequently transcribed and capped mMessage mMachine T7 RNA transcription kit (Ambion, Waltham, MA). […]
On the day of experiment, all compound dilutions were prepared in a saline solution [115 mM NaCl, 2.5 mM KCl, 10 mM MOPS (pH 7.5), 1.8 mM CaCl2, 0.1 mM MgCl2] and pH adjusted to 7.5 (if needed). […] Currents were recorded using pCLAMP 10 (Molecular Devices, Sunnyvale, CA). […]
In all recordings, the compounds or compound combinations were applied in the bath until the peak current decayed to a steady state (up to 30 sec at the most). […] The functional properties of the modulators at the CLRs were determined by pre-application of the modulator to the perfusate 30 sec and followed by co-application of the modulator and the agonist to the perfusate. […]
Data analysis of the results from the TEVC recordings were performed using Clampfit software version 10.5 (Molecular Devices, Crawley, UK) and GraphPad Prism version 7.0c (GraphPad Software, Inc. La Jolla, CA). […] I-V relationships were analyzed by fitting the curves with a third order polynomial model. […]

ZAC [2] = target: T1, ZAC; assay: FMP assay at ZAC-HEK293 cells; format: cell-based
Protocol: The screening of the 1,680 compounds in the compound library for antagonist activity at the ZAC-HEK293 cell line was performed in the FMP assay essentially as previously described. The day before the assay, cells were split into poly-D-lysine-coated black 96-well plates with clear bottoms (BD Biosciences, Palo Alto, CA) (6 × 10^4 cells/well). The following day, the culture medium was aspirated and the wells were washed once with 100 μl assay buffer (140 mM NaCl, 4.7 mM KCl, 2.5 mM CaCl2, 1.2 mM MgCl2, 11 mM HEPES, 10 mM D-glucose, pH 7.4), after which 100 μl assay buffer supplemented with FMP dye (0.5 mg/ml) and the various test compounds were added to the wells. The plate was then incubated at 37 °C for 30 min and assayed in a NOVOStar plate reader (BMG Labtechnologies, Offenburg, Germany) measuring emission at 560 nm caused by excitation at 530 nm before and up to 1 min after the addition of 33 μl of agonist solution. In the screening, the 1,680 compounds in the compound library were tested at assay concentrations in the 10–30 μM range, using Cu^2+ as agonist at an assay concentration of 200 μM.
Data from the FMP assay was analysed using KaleidaGraph 3.08 (Synergy Software, Reading, PA). Concentration-response curves for Cu^2+ and concentration-inhibition curves for compound 1 were constructed based on the difference in the relative fluorescence units (RFU) between the maximal fluorescence recorded before and after application of Cu^2+. The data were fitted to sigmoidal curves with variable slopes using nonlinear regression, and EC50 (Cu^2+) and IC50 (compound 1) values were derived from these equations.

Row | Voltage dependence of ZAC inhibition (ZAC [1]; 10 μM, H+ (pH 6.5)-evoked currents, −60 mV and +60 mV) | IC50 (ZAC [1]; H+ (pH 6.0) as agonist, TEVC, steady-state current, n = 6) [µM] | IC50 (ZAC [2]) [µM] | Structure (SMILES)
1 | voltage-independent | 8.5 |  | CC(C)(C)c1csc(NC(=O)c2cccc(F)c2)n1 [5a, N-(4-(tert-butyl)thiazol-2-yl)-3-fluorobenzamide]
2 |  |  | 6.1 | COC(=O)c1sc(NC(=O)c2cc(Br)ccc2Cl)nc1C [compound 1, 2-(5-bromo-2-chlorobenzamido)-4-methylthiazole-5-methyl ester]
